Data on three compounds can be found in US20130338216A1, “DEUTERATED AND/OR FLUORINATED TAXANE DERIVATIVES” (NEKTAR THERAPEUTICS, priority 2010, published 2013).

pIC50: −log10 of the molar value.

Data set [1] is described as follows: Maximum tolerated dose (MTD) study in athymic mice. As to conditions: for MTD at 30 day: female, athymic nu/nu, mouse, in vivo, iv, athymic nu/nu mice.
Procedure: Mice were observed daily for clinical signs and body weights were recorded on days 1-5, 7, 9, 11, 13, and then biweekly until the end of study. All procedures were conducted in compliance with IACUC requirements. Compound dosing was terminated for any group in which mean weight loss exceeded 20% or >10% of animals died. Moribund animals were euthanized and all animals were euthanized at end of study (day 30).
The subject of data set [2] is MDA-MB-231 cell line. Kind of data set: In vitro cytotoxicity, CellTiter-Glo cell viability, MDA-MB-231. It is filed as cell-based. As to conditions: Homo sapiens, 72 hours of exposure. The procedure: (§1) Experimental Procedure: NCI-H460, A549, and MDA-MB-231 cell lines were obtained from ATCC and cultured in RPMI-1640 medium supplemented with 2 mM L-glutamine dipeptide and 10% fetal bovine serum (FBS). For assays, cells were seeded in 96-well plates at 5,000 cells per well in RMPI-1640 medium supplemented with 2 mM L-glutamine dipeptide and 10% FBS. All cells were seeded in a total volume of 50 μL, and placed in a 37° C. humidified 5% CO2 cell culture incubator overnight. […] Cell viability was assessed using the CellTiter-Glo Luminescent Cell Viability Assay (Promega) according to the manufacturer's directions. Briefly, plates were removed from the incubator and placed on the bench at room temperature for 30 minutes. Plates were not stacked. Following the 30 minute incubation period at room temperature, 100 μL of CellTiter-Glo reagent were added to each well on the plate and mixed for two minutes, followed by a further ten minutes incubation at room temperature. Luminescence was then recorded using a PerkinElmer Microbeta scintillation and luminescence counter (TriLux). At the same time as drug exposure, a CellTiter-Glo assay was carried out on one plate of each cell line to obtain 0 hr counts for the assay. Following a 72 hour exposure to drugs, a CellTiter-Glo assay was performed on all remaining plates.

Data set [3] concerns A549 cell line. Kind of data set: In vitro cytotoxicity, CellTiter-Glo cell viability, A549. It is filed as cell-based. As to conditions: Homo sapiens, 72 hours of exposure. The procedure: as §1
Data set [4] has as its system NCI-H460 cell line. Kind of data set: In vitro cytotoxicity, CellTiter-Glo cell viability, NCI-H460. It is filed as cell-based. Particulars: Homo sapiens, 72 hours of exposure. The procedure:
as §1
A general note: In ATP-based viability assays light output follows the ATP content of the culture.

Data set [5] deals with boiled liver microsomes. Kind of data set: Stability in boiled liver microsomes (control incubation). It is filed as in vitro ADME. The method, then: (§2) Methods: Previously frozen human liver microsomes (mixed gender pool; Xenotech H0630) were thawed in a 37° C. water bath and put on ice immediately after thawing. […] The incubation mixture (500 μL) was prepared in individual silanized tube (CTS-13100) for each time point and for each test article. Incubation was terminated by adding 500 μL cold water:acetonitrile 1:1 (v/v) spiked with 400 nM paclitaxel (internal standard) to the tube. […] The slope of the linear regression from log percentage remaining versus incubation time relationships (−k) was used in the calculation of intrinsic clearance: Intrinsic clearance (CLint)=k*(μL incubation/mg of microsomal protein).

Data set [6] in a line: In vitro metabolic stability in human liver microsomes. As to conditions: both sexes, pH 7.4; human liver microsomes 0.5 mg/mL, 1 μM test article, up to 30 minutes, 37° C.; read-out: intrinsic clearance rate. In kind it is in vitro ADME. The method, then: as §2
In general terms: Microsomes from liver hold many membrane-bound enzymes, among them those of drug oxidation.

The subject of data set [7] is cytochrome P450 CYP3A4 and CYP3A5. As to conditions: by cytochrome P450 CYP3A4 and CYP3A5 isoenzymes; cited from earlier work.

Regarding `[2H]C([2H])([2H])C(OC(=O)N[C@@H](c1ccccc1)[C@@H](O)C(=O)O[C@H]1C[C@@]2(O)[C@@H](OC(=O)c3ccccc3)C3C(C)(C(=O)[C@H](O)C(=C1C)C2(C)C)[C@@H](O)CC1OC[C@]13OC(C)=O)(C([2H])([2H])[2H])C([2H])([2H])[2H]` (stereo partly drawn) [d9-Docetaxel], the “Treatment-Related Deaths” value stood at 0 in data set [1] (Group 1, 10 mg/kg iv, qwk x 3, N 5); 0 in data set [1] (Group 2, 20 mg/kg iv, qwk x 3, N 5); 0 in data set [1] (Group 3, 40 mg/kg iv, qwk x 3, N 5); 0 in data set [1] (Group 4, 7.5 mg/kg iv, qwk x 3 in Table 2, N 5); 0 in data set [1] (Group 5, 15 mg/kg iv, qwk x 3 in Table 2, N 5); 2 in data set [1] (Group 6, 30 mg/kg iv, qwk x 3 in Table 2, N 5). The “BW Nadir” value is reported as −5.6% in data set [1] (Group 2, 20 mg/kg iv, qwk x 3); −21.9% in data set [1] (Group 3, 40 mg/kg iv, qwk x 3); −10.6% in data set [1] (Group 4, 7.5 mg/kg iv, qwk x 3); −12.3% in data set [1] (Group 5, 15 mg/kg iv, qwk x 3); −29.6% in data set [1] (Group 6, 30 mg/kg iv, qwk x 3). For the same compound, in data set [1] (Group 6, 30 mg/kg iv, qwk x 3), the “Mean Day of Death” value is recorded as 11.5. Besides, the MTD at 30 day in data set [1] (q3d×3, iv) was approximately 15 mg/kg; in data set [1] (qwk×3, iv), approximately 30 mg/kg. The negative-log IC50 (pIC50) in data set [2] was 7.60; in data set [3], 8.80; in data set [4], 8.57.
As to `CO[C@H]1C(=O)[C@]2(C)[C@@H](OC)C[C@H]3OC[C@@]3(OC(C)=O)[C@H]2[C@H](OC(=O)c2ccccc2)[C@]2(O)C[C@H](OC(=O)[C@H](O)[C@@H](NC(=O)OC(C)(C)C)c3ccccc3)C(C)=C1C2(C)C` [Cabazitaxel], the “docetaxel formation after incubation with boiled liver microsomes” value in data set [5] was “not observed”. Moreover, the “stability during incubation with boiled liver microsomes” value in data set [5] (1 μM, up to 30 minutes) was “fairly stable”. Further, the microsomal CLint at 1 μM in data set [6] is 410 µL/min/mg. Besides, in data set [7], the “extensively metabolized in the liver” value is more than 95%.
For `CC(=O)O[C@@]12CO[C@@H]1C[C@H](O)[C@@]1(C)C(=O)[C@H](O)C3=C(C)[C@@H](OC(=O)[C@H](O)[C@@H](NC(=O)OC(C)(C)C)c4ccccc4)C[C@@](O)([C@@H](OC(=O)c4ccccc4)[C@H]21)C3(C)C` [Docetaxel, reference compound], the pIC50 is 7.45 in data set [2], 8.74 in data set [3] and 8.45 in data set [4].

The MTD is the highest dose tested that stayed within the study's limit of toxicity. Broadly, the pIC50 is −log10 of the IC50, conventionally taken in molar units. Read a high pIC50 as a low IC50.
